Assays:
[1] = Comparative pharmacokinetics of rhein in rats after oral rhein, rhubarb or SHXXT (plasma, UPLC-MS/MS); format: in vivo, Sprague-Dawley rats
From the text: All animal experimental protocols were reviewed and approved by the Institutional Animal Care and Use Committee (IACUC number: 1011202) of National Yang-Ming University. Male specific pathogen-free Sprague-Dawley rats were obtained from the Laboratory Animal Center of the National Yang-Ming University, Taipei, Taiwan. The animals had free access to food (laboratory rodent diet 5P14, PMI Feeds, Richmond, IN, USA) and water. For pharmacokinetic study, Sprague-Dawley rats weighing 220 ± 20 g were anesthetized with pentobarbital (50 mg/kg, i.p.) for cannulation. A polyethylene tube (PE50) was implanted into the left carotid artery for blood sampling. The cannula was exteriorized, fixed in the dorsal region of the neck. Patency of the tube was maintained by flushing with heparinized saline (20 IU/mL). After surgery, the rats were kept in cages individually and allowed to recover for one day. The dose of herbal formula for translation from human to animal is recommended by the US Food and Drug Administration guidelines as the following conversion equation : Human equivalent dose (HED, mg/kg) = animal dose (mg/kg) × (animal Km/human Km). Study on pharmacokinetics of rhein at 50, 100, and 200 mg in human (60 kg in adults) has been investigated, and therefore, rhein at 11.9 mg/kg was studied in this study according to the dose translation equation. Briefly, the pure compound rhein, the rhubarb extract, and the SHXXT formula suspended in water at doses of 11.9 mg/kg, 5.2 g/kg, and 5 g/kg were individually administered to rats by oral gavage. The doses of rhubarb extract and SHXXT extract were equivalent to rhein administration dose of 11.9 mg/kg. About 200 µL of blood samples was withdrawn from the cannula implanted in the carotid artery and placed into a heparin-rinsed vial at 0, 15, 30, 45, 60, 90, 120, 150, 180, 240, 300 and 360 min. The method of plasma sample preparation was slightly modified from the previous study. For quantitative analysis, the plasma sample (50 µL) was vortex-mixed with acetonitrile (100 µL) for protein precipitation. Data from these samples were used to construct the pharmacokinetic curve of rhein. The plasma sample was diluted by blank plasma sample at an appropriate ratio before analysis if the rhein concentration was excess 2500 ng/mL. Pharmacokinetic calculations were performed on each individual set of data using the pharmacokinetic software WinNonlin Standard Edition, version 1.1 (Pharsight Corp., Mountain View, CA, USA) by noncompartmental methods.

[2] = parameters: method as in PMID 21945452; conditions: Chinese healthy subjects, single oral administration, range 50–200 mg; cited from earlier work
[3] = parameters: method as in PMID 19737807; conditions: after SHXXT; cited from earlier work
[4] = parameters: method as in PMID 24214833; conditions: cited from earlier work; for detection in rat plasma, decoction group: after oral administration of SHXXT decoction; for detection in rat plasma, maceration group: after oral administration of SHXXT maceration
[5] = after oral administration of SHXXT
[6] = male, Sprague-Dawley, po, rhein in rat plasma, rhein 11.9 mg/kg, rhubarb 5.2 g/kg or SHXXT 5 g/kg (each equivalent to rhein 11.9 mg/kg), n = 6, mean ± SD
[7] = rhein in rat plasma, p.o., rhein 11.9 mg/kg, rhubarb 5.2 g/kg or SHXXT 5 g/kg (each equivalent to rhein 11.9 mg/kg), n = 6, mean ± SD

Row | SMILES | free (unconjugated) form detected in rat plasma [1, 5] | detection in rat plasma, decoction group [4] | detection in rat plasma, maceration group [4] | further results
1 | COc1ccc2cc3[n+](cc2c1OC)CCc1cc2c(cc1-3)OCO2 [berberine] | not detected | detected | absent | –
2 | c1c2c(cc3c1OCO3)-c1cc3ccc4c(c3c[n+]1CC2)OCO4 [coptisine] | – | detected | absent | –
3 | COc1cc2c(cc1O)CC[n+]1cc3c(OC)c(OC)ccc3cc1-2 [jatrorrhizine] | – | detected | absent | –
4 | COc1cc2c(cc1OC)-c1cc3ccc(OC)c(OC)c3c[n+]1CC2 [palmatine] | – | detected | absent | free (unconjugated) form detected in rat plasma ([1]; rat, in vivo, po): not detected

Second part, led by results:

Row | free (unconjugated) form detected in rat plasma [1, 5] | SMILES | detection in rat plasma, decoction group [4] | detection in rat plasma, maceration group [4] | further results
5 | existed in the free form | O=C(O)c1cc(O)c2c(c1)C(=O)c1cccc(O)c1C2=O [Rhein, 4,5-dihydroxy-9,10-dioxoanthracene-2-carboxylic acid] | – | – | MRT ([1]; male, Sprague-Dawley, po, rhein in rat plasma, p.o., rhein 11.9 mg/kg, rhubarb 5.2 g/kg or SHXXT 5 g/kg (each equivalent to rhein 11.9 mg/kg), n = 6, mean ± SD, read-out: MRT (mean residence time) (converted)): 1.87 h; half-life ([1]; male, Sprague-Dawley, po, rhein in rat plasma, p.o., rhein 11.9 mg/kg, rhubarb 5.2 g/kg or SHXXT 5 g/kg (each equivalent to rhein 11.9 mg/kg), n = 6, mean ± SD, read-out: T1/2 (elimination half-life)): 2.4 ± 0.287 h; AUC [1, 6]: 3.13 µg·h/mL; Cmax [1, 6]: 2.45 ± 0.55 µg/mL; Tmax [1, 6]: 0.417 h; CL (total body clearance) [1, 7]: 3.48 ± 0.473 L/h/kg; Vss (volume of distribution) [1, 7]: 12.2 ± 2.10 L/kg; dose linearity of pharmacokinetics [2]: linear pharmacokinetics
6 | not detected | O=c1cc(-c2ccccc2)oc2cc(O)c(O)c(O)c12 [baicalein] | – | – | forms determined in serum [3]: only the conjugated metabolites
7 | not detected | O=C(O)[C@H]1O[C@@H](Oc2cc3oc(-c4ccccc4)cc(=O)c3c(O)c2O)[C@H](O)[C@@H](O)[C@@H]1O [baicalin] | – | – | –
8 | not detected | Cc1cc(O)c2c(c1)C(=O)c1cc(O)cc(O)c1C2=O [emodin] | – | – | forms determined in serum [3]: only the conjugated metabolites

Source: article PMC6271780, “Determination of Bioactive Components in Chinese Herbal Formulae and Pharmacokinetics of Rhein in Rats by UPLC-MS/MS” (Molecules, 2014)
